According to ChEMBL document CHEMBL1132796, “Multistep solution-phase parallel synthesis of spiperone analogues” (Bioorg Med Chem Lett, 2000):
pIC50, pKi: −log10 of the molar value.

Tests used:
[1] = target: T1, 5-hydroxytryptamine receptor 2A (Homo sapiens, UniProt P28223); assay: Compound was evaluated for its inverse agonist activity against 5-hydroxytryptamine 2A receptor; type: functional
[2] = target: T1, 5-hydroxytryptamine receptor 2A; assay: Compound was evaluated for its binding against 5-hydroxytryptamine 2A receptor

T1 sequence (P28223 whole entry): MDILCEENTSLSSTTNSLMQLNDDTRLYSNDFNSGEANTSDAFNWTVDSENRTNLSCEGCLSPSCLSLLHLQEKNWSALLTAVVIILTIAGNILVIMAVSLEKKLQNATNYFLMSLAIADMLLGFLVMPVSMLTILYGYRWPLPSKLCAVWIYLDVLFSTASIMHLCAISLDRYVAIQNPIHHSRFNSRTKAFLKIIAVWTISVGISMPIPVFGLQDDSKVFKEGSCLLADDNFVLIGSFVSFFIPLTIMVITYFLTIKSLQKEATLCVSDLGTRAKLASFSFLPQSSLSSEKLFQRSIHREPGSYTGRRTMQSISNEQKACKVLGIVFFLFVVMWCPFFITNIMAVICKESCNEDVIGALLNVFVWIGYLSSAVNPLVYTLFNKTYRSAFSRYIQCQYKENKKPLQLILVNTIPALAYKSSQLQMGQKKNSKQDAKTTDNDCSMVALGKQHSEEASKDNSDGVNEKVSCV

Structure (SMILES) | pIC50 [1] | pKi [2]
CC(C)NC(=O)N(C1CCCCCCC1)C1CCN(CCCOc2ccc(F)cc2)CC1 | 7.10 | –
CCC(=O)N(C1CCCCCCC1)C1CCN(CCCOc2ccc(F)cc2)CC1 | 7.90 | 7.70
